Source: patent publication US10407445B2, “Hepatitis C virus inhibitors” (ENANTA PHARMACEUTICALS, INC., priority 2013, dated 2019)
pEC50: −log10 of the molar value.

Experiments:
Assay type in all cases: cell-based
Details in all cases: Hepatitis C virus
[1] = system: HCV genotype 1a replicon, NS5A Q30K; test: Transient replication assay, GT1a NS5A Q30K
[2] = system: GT3a-S52 replicon; test: Stable replicon assay, comparison to daclatasvir, GT3a-S52
From the text: The GT3a-S52 replicon plasmid pSGRlucneo-GT3a-S52-HDVR-(ISH) was synthesized by Genscript. This plasmid encodes a GT3a (strain S52, accession GU814264) bicistronic subgenomic replicon encoding the hRluc-Neo reporter gene in the first cistron and NS3-NS5B, driven by an encephalomyocarditis virus (EMCV) internal ribosome entry site (IRES), in the second cistron. The hepatitis delta ribozyme (HDVR) was included after the HCV 3′ NTR followed by a unique SpeI restriction site for linearization. This replicon encodes three cell culture adaptive mutations, P1226S (NS3), D1437H (NS3), and S2210I (NS5A), as described previously (Saeed et al 2012 Antimicrob. Agents Chemother. 54: 1878-1887). The GT4a-ED43 replicon plasmid pSGRlucneo-GT4a-ED43-HDVR-(KG) was synthesized by Genscript. […]
Stable HCV replicon cell lines were grown in complete media (Dulbecco's modified Eagle medium [DMEM], 2 mM L-glutamine, 0.1 mM essential amino acids, 1 mM sodium pyruvate, 10% fetal bovine serum) with the addition 500 μg/ml […] (G418). […] For stable and transient replicon assays, luciferase activity of compound-treated cells was measured relative to DMSO-treated cells after 72 h incubation using RENILLA-GLO™ Luciferase Assay (Promega). […]

[3] = system: HCV genotype 1a replicon, NS5A L31V; test: Transient replication assay, GT1a NS5A L31V
[4] = system: HCV genotype 1a replicon, NS5A M28T; test: Transient replication assay, GT1a NS5A M28T

SMILES	pEC50 [1]	pEC50 [2]	pEC50 [3]	pEC50 [4]
COC(=O)N[C@H](C(=O)N1C[C@]2(CCCOC2)C[C@H]1c1ncc(-c2ccc(-c3ccc4c(ccc5nc([C@@H]6C[C@@H]7CCC[C@@H]7N6C(=O)[C@@H](NC(=O)OC)C(C)C)[nH]c54)c3)cc2)[nH]1)C(C)C [Compound 16]	10.30	8.33	9.82	10.31
COC(=O)N[C@H](C(=O)N1CCC[C@H]1c1nc(-c2ccc(-c3ccc(-c4c[nH]c([C@@H]5CCCN5C(=O)[C@@H](NC(=O)OC)C(C)C)n4)cc3)cc2)c[nH]1)C(C)C [Daclatasvir, reference compound]	8.10	8.92	8.35	8.47
